This passage reports IC50 results from patent US7074789B2, “Kinase inhibitors” (Amgen Inc., priority 1999, dated 2006).

Holding throughout (assay type): biochemical
The target in one assay is T1, c-Met (Homo sapiens, UniProt P08581).
T1 construct: Kinases are expressed as either kinase domains or full length constructs; made in house
The experiment in a line: Kinase inhibition assay (33P transfer), c-Met. As to conditions: Table 2, class symbols A-E; read-out: Met-1. In a few lines: (§1)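 GST/His-fusion kinases, E. coli or High Five expressed, affinity purified; 33P-ATP, plate-coated poly(Glu,Tyr) 4:1 or poly(Arg,Ser) 3:1; 0.5% H3PO4 wash, scintillant, LSC.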

The target in another assay is T2, ErbB2 (Homo sapiens, UniProt P04626).
T2 construct: Kinases are expressed as either kinase domains or full length constructs; made in house
T2 sequence (P04626 23-1255, species assumed): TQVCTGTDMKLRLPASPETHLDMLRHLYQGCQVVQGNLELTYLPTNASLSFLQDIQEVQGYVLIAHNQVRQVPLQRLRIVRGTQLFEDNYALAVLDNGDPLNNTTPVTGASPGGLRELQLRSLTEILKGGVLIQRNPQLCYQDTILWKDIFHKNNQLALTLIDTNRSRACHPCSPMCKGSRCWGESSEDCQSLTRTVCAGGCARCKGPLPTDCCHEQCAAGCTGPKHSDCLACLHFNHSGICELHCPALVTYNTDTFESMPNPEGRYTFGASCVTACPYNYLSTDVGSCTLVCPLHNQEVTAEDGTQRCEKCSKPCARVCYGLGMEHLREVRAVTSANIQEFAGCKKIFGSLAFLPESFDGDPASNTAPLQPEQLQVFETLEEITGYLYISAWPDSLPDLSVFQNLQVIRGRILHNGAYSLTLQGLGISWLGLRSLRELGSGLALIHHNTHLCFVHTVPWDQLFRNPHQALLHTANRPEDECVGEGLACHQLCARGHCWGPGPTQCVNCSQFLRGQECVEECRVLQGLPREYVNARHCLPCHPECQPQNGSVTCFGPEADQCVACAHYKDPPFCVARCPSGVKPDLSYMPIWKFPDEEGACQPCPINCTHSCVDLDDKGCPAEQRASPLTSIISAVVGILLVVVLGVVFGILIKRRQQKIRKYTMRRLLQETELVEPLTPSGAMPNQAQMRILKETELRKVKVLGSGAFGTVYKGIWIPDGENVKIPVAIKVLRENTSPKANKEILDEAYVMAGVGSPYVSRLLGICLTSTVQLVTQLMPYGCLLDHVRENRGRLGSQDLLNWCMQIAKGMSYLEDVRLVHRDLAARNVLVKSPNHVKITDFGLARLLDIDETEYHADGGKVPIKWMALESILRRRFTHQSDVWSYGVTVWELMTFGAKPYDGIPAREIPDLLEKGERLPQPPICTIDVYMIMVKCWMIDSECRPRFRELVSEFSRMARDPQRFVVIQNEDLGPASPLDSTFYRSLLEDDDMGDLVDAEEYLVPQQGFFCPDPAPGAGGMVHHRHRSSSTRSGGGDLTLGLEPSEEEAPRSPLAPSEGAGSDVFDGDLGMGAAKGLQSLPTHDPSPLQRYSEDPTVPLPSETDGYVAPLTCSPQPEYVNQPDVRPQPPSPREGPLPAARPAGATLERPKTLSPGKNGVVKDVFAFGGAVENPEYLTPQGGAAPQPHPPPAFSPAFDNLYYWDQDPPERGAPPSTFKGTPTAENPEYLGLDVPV
The experiment in a line: Kinase inhibition assay (33P transfer), ErbB2. The settings on record: read-out: ErbB2-2. The method, boiled down: as §1

A further assay has as its target T3, AKT (Homo sapiens, UniProt Q9Y243).
T3 construct: Kinases are expressed as either kinase domains or full length constructs; made in house
Put plainly: Kinase inhibition assay (33P transfer), AKT. As to conditions: Table 2, class symbols A-E; read-out: AKT3-1. The method, boiled down:
(§2)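 Liquid scintillation counting of 33P on plate-bound synthetic substrates gives kinase activity. Plates are washed in 0.5% phosphoric acid first; kinases are tagged recombinant proteins from E. coli or baculovirus-infected High Five cells.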

The next assay has as its target T4, Zap-70 (Homo sapiens, UniProt P43403).
T4 construct: Kinases are expressed as either kinase domains or full length constructs; made in house
T4 sequence (P43403 1-619): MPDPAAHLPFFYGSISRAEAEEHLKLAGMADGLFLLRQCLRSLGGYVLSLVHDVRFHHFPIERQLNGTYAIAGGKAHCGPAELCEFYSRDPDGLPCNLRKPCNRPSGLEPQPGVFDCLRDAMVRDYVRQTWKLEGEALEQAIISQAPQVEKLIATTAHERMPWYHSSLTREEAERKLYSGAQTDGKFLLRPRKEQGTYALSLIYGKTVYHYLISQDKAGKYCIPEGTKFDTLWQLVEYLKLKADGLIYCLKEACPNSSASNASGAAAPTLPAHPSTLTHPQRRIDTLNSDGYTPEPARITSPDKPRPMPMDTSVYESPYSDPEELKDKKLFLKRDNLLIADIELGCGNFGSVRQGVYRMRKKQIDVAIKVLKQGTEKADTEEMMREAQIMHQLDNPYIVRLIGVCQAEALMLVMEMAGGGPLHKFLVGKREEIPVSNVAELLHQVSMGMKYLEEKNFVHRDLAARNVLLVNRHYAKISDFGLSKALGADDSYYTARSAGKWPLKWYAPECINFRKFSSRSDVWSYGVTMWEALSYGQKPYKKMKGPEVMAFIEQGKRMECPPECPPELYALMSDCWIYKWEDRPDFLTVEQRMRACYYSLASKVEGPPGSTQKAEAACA
Put plainly: Kinase inhibition assay (33P transfer), Zap-70. As to conditions: Table 3, class symbols; read-out: Zap-1. The method, boiled down: as §2

In a further assay the target is T5, PDGFRB (Homo sapiens, UniProt P09619).
T5 construct: Kinases are expressed as either kinase domains or full length constructs; made in house
Put plainly: Kinase inhibition assay (33P transfer), PDGFRB. As to conditions: read-out: PDGFRB-1.

The target in another assay is T6, Lck (Homo sapiens, UniProt P06239).
T6 construct: Kinases are expressed as either kinase domains or full length constructs; made in house
T6 sequence (P06239 whole entry, species assumed, the tested form may be a part): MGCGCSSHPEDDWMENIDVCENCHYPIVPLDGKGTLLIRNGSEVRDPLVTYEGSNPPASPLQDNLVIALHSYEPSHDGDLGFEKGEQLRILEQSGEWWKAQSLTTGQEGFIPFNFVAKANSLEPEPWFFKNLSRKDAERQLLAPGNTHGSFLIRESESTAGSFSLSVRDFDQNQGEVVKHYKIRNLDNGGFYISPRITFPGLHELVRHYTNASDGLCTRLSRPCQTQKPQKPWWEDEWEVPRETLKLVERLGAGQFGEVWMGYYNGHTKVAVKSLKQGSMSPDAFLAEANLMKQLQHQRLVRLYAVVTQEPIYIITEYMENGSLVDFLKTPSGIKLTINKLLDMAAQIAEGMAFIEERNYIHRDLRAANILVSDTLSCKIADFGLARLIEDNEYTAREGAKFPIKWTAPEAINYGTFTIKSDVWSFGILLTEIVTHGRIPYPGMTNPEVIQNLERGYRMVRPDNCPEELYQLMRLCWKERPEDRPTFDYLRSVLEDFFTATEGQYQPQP
Put plainly: Kinase inhibition assay (33P transfer), Lck. As to conditions: Table 3, class symbols; read-out: Lck-1. In a few lines:
as §2

The target in the next assay is T7, IGFR-1 (Homo sapiens, UniProt P08069).
T7 construct: Kinases are expressed as either kinase domains or full length constructs; made in house
T7 sequence (P08069 31-1367): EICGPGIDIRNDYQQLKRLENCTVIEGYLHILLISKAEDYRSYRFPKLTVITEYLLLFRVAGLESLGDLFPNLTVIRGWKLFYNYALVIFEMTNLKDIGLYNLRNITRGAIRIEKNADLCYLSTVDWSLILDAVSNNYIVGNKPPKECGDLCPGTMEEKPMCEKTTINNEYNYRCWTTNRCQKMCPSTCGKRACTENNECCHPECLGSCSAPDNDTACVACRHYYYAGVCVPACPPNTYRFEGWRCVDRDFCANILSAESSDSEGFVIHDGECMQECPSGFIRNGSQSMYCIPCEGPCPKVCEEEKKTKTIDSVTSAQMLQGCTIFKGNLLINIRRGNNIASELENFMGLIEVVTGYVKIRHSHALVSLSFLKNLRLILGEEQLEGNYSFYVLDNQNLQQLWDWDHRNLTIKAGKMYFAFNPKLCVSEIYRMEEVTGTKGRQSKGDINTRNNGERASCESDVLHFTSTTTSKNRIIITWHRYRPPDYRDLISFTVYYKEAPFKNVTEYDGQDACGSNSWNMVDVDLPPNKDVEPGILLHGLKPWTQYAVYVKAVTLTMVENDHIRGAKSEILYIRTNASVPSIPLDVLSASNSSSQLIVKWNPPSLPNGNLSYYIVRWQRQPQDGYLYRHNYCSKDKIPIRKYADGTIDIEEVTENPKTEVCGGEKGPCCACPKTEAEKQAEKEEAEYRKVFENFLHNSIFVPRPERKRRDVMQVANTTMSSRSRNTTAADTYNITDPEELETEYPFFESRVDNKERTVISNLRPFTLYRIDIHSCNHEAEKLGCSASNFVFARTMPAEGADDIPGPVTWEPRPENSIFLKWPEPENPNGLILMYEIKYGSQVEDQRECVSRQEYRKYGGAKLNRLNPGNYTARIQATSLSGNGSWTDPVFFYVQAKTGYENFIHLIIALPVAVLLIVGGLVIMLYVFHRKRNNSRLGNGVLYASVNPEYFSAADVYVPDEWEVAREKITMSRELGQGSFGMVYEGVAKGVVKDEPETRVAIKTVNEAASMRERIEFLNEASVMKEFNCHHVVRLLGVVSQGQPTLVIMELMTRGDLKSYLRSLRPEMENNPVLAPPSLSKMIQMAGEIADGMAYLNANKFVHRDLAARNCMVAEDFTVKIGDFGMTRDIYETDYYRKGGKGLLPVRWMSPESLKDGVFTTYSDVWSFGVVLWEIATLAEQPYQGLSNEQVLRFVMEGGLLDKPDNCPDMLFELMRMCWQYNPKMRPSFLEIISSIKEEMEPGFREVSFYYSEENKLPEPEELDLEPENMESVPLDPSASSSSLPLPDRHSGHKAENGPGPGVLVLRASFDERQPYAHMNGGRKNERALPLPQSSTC
Put plainly: Kinase inhibition assay (33P transfer), IGFR-1. The settings on record: Table 2, class symbols A-E.

The target in the next assay is T8, Kdr (Homo sapiens, UniProt P35968).
T8 construct: Kinases are expressed as either kinase domains or full length constructs; made in house
The experiment in a line: Kinase inhibition assay (33P transfer), Kdr. The settings on record: Table 3, class symbols; read-out: KDR-1. The method, boiled down:
as §2

The next assay addresses T9, Itk (Homo sapiens, UniProt Q08881).
T9 construct: Kinases are expressed as either kinase domains or full length constructs; made in house
T9 sequence (Q08881 1-620): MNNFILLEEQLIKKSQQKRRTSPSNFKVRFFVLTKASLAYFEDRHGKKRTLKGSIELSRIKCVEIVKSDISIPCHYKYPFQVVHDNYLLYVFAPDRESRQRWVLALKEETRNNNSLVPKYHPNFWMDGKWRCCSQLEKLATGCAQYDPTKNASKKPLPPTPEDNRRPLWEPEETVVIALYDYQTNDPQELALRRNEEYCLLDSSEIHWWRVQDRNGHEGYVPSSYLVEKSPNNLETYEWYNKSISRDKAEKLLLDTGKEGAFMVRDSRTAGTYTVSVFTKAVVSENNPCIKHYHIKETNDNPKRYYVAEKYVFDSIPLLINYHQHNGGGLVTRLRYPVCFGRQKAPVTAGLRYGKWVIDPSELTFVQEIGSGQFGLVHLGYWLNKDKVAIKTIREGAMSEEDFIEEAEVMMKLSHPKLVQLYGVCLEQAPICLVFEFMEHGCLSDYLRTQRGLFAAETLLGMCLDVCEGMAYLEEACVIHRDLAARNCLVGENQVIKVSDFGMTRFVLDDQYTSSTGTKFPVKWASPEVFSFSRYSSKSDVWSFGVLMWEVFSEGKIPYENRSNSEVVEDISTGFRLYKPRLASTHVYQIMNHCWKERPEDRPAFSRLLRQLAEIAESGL
Put plainly: Kinase inhibition assay (33P transfer), Itk. The settings on record: Table 3, class symbols; read-out: Itk-1. In a few lines: as §1

In another assay the target is T10, EGFR (Homo sapiens, UniProt P00533).
T10 construct: Kinases are expressed as either kinase domains or full length constructs; made in house
T10 sequence (P00533 25-1210, species assumed): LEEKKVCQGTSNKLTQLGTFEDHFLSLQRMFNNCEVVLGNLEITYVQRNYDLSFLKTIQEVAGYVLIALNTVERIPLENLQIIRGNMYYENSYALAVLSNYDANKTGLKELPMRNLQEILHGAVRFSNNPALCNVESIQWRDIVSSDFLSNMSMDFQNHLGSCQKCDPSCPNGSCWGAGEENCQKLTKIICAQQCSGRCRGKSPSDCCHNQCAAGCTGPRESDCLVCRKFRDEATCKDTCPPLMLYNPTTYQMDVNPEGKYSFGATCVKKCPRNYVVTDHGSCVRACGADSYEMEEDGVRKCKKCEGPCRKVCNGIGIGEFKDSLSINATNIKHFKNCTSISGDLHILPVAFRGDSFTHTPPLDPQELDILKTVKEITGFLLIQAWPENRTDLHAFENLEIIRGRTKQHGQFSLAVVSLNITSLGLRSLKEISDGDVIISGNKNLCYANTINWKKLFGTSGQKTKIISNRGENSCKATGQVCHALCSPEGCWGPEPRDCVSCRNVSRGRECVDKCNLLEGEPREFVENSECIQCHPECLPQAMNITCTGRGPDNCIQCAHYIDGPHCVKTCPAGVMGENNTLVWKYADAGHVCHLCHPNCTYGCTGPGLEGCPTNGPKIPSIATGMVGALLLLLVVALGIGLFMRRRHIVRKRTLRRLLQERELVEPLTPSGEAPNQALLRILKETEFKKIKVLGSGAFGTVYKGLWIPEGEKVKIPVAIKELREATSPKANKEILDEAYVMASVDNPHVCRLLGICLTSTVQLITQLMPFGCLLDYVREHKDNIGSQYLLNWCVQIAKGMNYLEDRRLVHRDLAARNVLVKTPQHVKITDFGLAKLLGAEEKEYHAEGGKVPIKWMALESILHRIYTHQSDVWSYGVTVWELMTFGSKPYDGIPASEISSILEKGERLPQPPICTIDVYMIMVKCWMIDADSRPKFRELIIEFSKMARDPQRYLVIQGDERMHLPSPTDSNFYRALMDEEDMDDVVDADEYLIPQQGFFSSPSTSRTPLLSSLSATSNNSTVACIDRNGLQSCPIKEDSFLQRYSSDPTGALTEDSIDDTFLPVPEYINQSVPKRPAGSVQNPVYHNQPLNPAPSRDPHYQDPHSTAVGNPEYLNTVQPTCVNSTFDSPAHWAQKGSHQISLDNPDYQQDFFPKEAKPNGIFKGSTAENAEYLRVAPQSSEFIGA
The experiment in a line: Kinase inhibition assay (33P transfer), EGFR. The settings on record: Table 2, class symbols A-E; read-out: EGFR-1. In a few lines: as §1

T3 sequence (Q9Y243 whole entry, the tested form may be a part): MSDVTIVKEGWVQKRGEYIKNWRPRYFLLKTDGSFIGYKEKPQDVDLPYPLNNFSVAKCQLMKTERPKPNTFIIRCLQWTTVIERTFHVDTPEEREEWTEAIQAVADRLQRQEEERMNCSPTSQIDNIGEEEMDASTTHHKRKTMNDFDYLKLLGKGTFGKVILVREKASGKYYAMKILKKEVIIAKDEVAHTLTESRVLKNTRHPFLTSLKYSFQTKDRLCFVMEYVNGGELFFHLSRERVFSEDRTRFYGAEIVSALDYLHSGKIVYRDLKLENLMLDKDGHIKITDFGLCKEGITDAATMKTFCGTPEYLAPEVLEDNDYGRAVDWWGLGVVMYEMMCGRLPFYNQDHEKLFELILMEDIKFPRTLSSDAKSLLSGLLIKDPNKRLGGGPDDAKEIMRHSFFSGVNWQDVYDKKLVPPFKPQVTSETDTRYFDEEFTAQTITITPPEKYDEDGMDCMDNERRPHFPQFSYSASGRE

Regarding `COc1ccc(Nc2ncnc(N(C)C3CCN(Cc4ccccc4)C3)n2)cc1OC` (centres unmarked) [Compound 802], the IC50 at c-Met is more than 10.7 µM; at ErbB2, more than 10.7 µM; on AKT it was more than 10.7 µM; on Zap-70, more than 10.7 µM; on PDGFRB it was 0.951 to 5.71 µM; at Lck, more than 10.7 µM. For the same molecule, the IC50 against IGFR-1, at Kdr, on Itk and at EGFR was more than 10.7 µM each time.
Regarding `COc1cc(CNc2ncnc(Nc3cc(-c4ccco4)n[nH]3)n2)cc(OC)c1OC` [Compound 997], the IC50 at c-Met, at ErbB2, on AKT, at Zap-70, on PDGFRB and on Lck was more than 10.6 µM each time. The IC50 on IGFR-1, at Kdr, at Itk and on EGFR was more than 10.6 µM throughout.
On to `c1ccc(-c2cc(Nc3ncnc(Nc4ccc5[nH]ncc5c4)n3)[nH]n2)cc1` [Compound 1013], for which the IC50 on c-Met is 1.08 to 6.5 µM; on ErbB2 it was 1.08 to 6.5 µM; on AKT, 1.08 to 6.5 µM; at Zap-70, 6.5 to 9.48 µM; on PDGFRB, less than 1.08 µM; on Lck it was 1.08 to 6.5 µM. Also, the IC50 against IGFR-1 was less than 1.08 µM; on Kdr, less than 1.08 µM; at Itk, 1.08 to 6.5 µM; on EGFR, 1.08 to 6.5 µM.
With `Fc1ccc(CNc2ncccc2-c2ncnc(Nc3ccc(N4CCOCC4)cc3)n2)cc1` [Compound 1106], the IC50 at c-Met was more than 9.84 µM; on ErbB2, more than 9.84 µM; on AKT it was more than 9.84 µM; at Zap-70 it was more than 9.84 µM; at PDGFRB, 0.874 to 5.25 µM; on Lck it was more than 9.84 µM. Further, the IC50 at IGFR-1 was more than 9.84 µM; on Kdr, 0.874 to 5.25 µM; at Itk it was more than 9.84 µM; at EGFR it was more than 9.84 µM.
Turning to `Cc1cccc(Nc2ncnc(N(C)c3ccc4c(cnn4Cc4ccccc4)c3)n2)c1` [Compound 668], the IC50 at c-Met was 5.69 to 8.3 µM; on ErbB2, less than 0.949 µM; on AKT, more than 10.7 µM; on Zap-70, more than 10.7 µM; at PDGFRB it was 8.3 to 10.7 µM; at Lck, 5.69 to 8.3 µM. In addition, the IC50 against IGFR-1 was more than 10.7 µM; at Kdr it was 5.69 to 8.3 µM; at Itk it was more than 10.7 µM; at EGFR, less than 0.949 µM.
Take `COc1cc(Nc2ncnc(-n3ccnc3Cl)n2)cc(OC)c1OC` [Compound 1071]: the IC50 on c-Met is more than 12.4 µM; on ErbB2, more than 12.4 µM; on AKT it was more than 12.4 µM; on Zap-70, more than 12.4 µM; at PDGFRB, 1.1 to 6.62 µM; at Lck, 9.65 to 12.4 µM. For the same molecule, the IC50 on IGFR-1 fell in the range of 1.1 to 6.62 µM; on Kdr, 9.65 to 12.4 µM; at Itk, 1.1 to 6.62 µM; on EGFR, 1.1 to 6.62 µM.
Consider `COC(=O)c1ccc(-c2cc(Nc3ncnc(Nc4cc(Cl)cc(Cl)c4)n3)[nH]n2)cc1` [Compound 811], for which the IC50 on c-Met, on ErbB2, on AKT, at Zap-70, at PDGFRB and on Lck was more than 9.86 µM in each case. Further, the IC50 is 5.26 to 7.67 µM against IGFR-1, more than 9.86 µM on Kdr, more than 9.86 µM on Itk and more than 9.86 µM at EGFR.
`COc1ccc(Nc2ncnc(N(C)c3cccc(C)c3)n2)cc1OC` [Compound 800]: the IC50 on c-Met was 1.14 to 6.83 µM; on ErbB2, 1.14 to 6.83 µM; on AKT, more than 12.8 µM; on Zap-70 it was more than 12.8 µM; on PDGFRB, more than 12.8 µM; on Lck, 1.14 to 6.83 µM. Also, the IC50 against IGFR-1 was 9.96 to 12.8 µM; at Kdr it was 1.14 to 6.83 µM; at Itk, more than 12.8 µM; on EGFR, less than 1.14 µM.
As to `CN(c1cccc(Cl)c1)c1ncnc(Nc2cccc(OC(F)(F)F)c2)n1` [Compound 875], the IC50 was 6.06 to 8.84 µM at c-Met; 1.01 to 6.06 µM on ErbB2; more than 11.4 µM on AKT; more than 11.4 µM on Zap-70; 1.01 to 6.06 µM at PDGFRB; more than 11.4 µM on Lck. Moreover, the IC50 is more than 11.4 µM at IGFR-1, 6.06 to 8.84 µM on Kdr, 8.84 to 11.4 µM on Itk and less than 1.01 µM on EGFR.
In the case of `O=C(O)CNC(=O)c1ccc(Nc2ncnc(Nc3cc(-c4ccco4)[nH]n3)n2)cc1` [Compound 884], the IC50 was 0.951 to 5.71 µM at c-Met; 0.951 to 5.71 µM at ErbB2; 0.951 to 5.71 µM on AKT; 5.71 to 8.33 µM on Zap-70; less than 0.951 µM at PDGFRB; more than 10.7 µM on Lck. Moreover, the IC50 on IGFR-1 is 0.951 to 5.71 µM; on Kdr it was less than 0.951 µM; at Itk, 0.951 to 5.71 µM; on EGFR, 0.951 to 5.71 µM.
As to `Fc1ccc(CNc2ncccc2-c2ncnc(Nc3ccc4[nH]ncc4c3)n2)cc1` [Compound 1108], the IC50 is more than 10.9 µM at c-Met; more than 10.9 µM at ErbB2; 0.97 to 5.82 µM at AKT; 5.82 to 8.49 µM on Zap-70; less than 0.97 µM at PDGFRB; 5.82 to 8.49 µM on Lck. Also, the IC50 is 5.82 to 8.49 µM at IGFR-1, less than 0.97 µM at Kdr, 5.82 to 8.49 µM on Itk and 0.97 to 5.82 µM on EGFR.
For `COC(=O)c1ccc(-c2cc(Nc3ncnc(NCc4cccnc4)n3)[nH]n2)cc1` [Compound 809], the IC50 is 5.96 to 8.7 µM at c-Met; 8.7 to 11.2 µM on ErbB2; 8.7 to 11.2 µM at AKT; more than 11.2 µM on Zap-70; 8.7 to 11.2 µM at PDGFRB; more than 11.2 µM at Lck. The IC50 against IGFR-1 is 5.96 to 8.7 µM; on Kdr, more than 11.2 µM; on Itk, 0.994 to 5.96 µM; at EGFR, more than 11.2 µM.
As for `COc1ccc(CNc2ncnc(Nc3cc(-c4ccco4)n[nH]3)n2)cc1` [Compound 994], the IC50 at c-Met, at ErbB2, at AKT, at Zap-70, at PDGFRB and at Lck was more than 12.4 µM each time. Besides, the IC50 against IGFR-1, at Kdr, at Itk and on EGFR was more than 12.4 µM each time.
Turning to `COc1cc(Nc2ncnc(-c3cccnc3NCC(C)c3ccccc3)n2)cc(OC)c1OC` (centres unmarked) [Compound 890], the IC50 at c-Met was more than 9.52 µM; on ErbB2, more than 9.52 µM; on AKT it was more than 9.52 µM; on Zap-70, more than 9.52 µM; on PDGFRB it was 0.846 to 5.08 µM; at Lck, more than 9.52 µM. Also, the IC50 was more than 9.52 µM against IGFR-1, 7.41 to 9.52 µM at Kdr, more than 9.52 µM on Itk and more than 9.52 µM on EGFR.
